Laboratory results: paper PMC6697583 (Cancer research, 2019)

Biological target: T1, heme oxygenase 1 (HO-1) (Homo sapiens, UniProt P09601)
T1 sequence (P09601 1-288): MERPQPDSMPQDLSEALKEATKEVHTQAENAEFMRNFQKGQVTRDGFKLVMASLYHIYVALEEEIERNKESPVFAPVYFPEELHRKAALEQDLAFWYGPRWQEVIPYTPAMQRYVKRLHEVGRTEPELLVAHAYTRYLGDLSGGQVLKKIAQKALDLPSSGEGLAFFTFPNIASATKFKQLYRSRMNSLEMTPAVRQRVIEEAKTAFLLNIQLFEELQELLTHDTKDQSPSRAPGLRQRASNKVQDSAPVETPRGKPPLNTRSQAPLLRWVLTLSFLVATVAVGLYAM
Assay: bilirubin fluorescence assay on purified HO-1
Type: biochemical

IC50: 17.6 nM
SMILES: Cc1c(O)ccc2c1OC[C@@H](c1ccc(O)cc1)[C@H]2c1ccc(O)cc1 [ME-344, (3R,4S)-3,4-bis(4-hydroxyphenyl)-8-methyl-3,4-dihydro-2H-chromen-7-ol]
